{
  "source": "paper PMC9399069",
  "about": "“Imaging PARP with [^18F]rucaparib in pancreatic cancer models” (European Journal of Nuclear Medicine and Molecular Imaging, 2022)",
  "assay_type_in_all_cases": "cell-based, human",
  "key": {"PSN1 cells [1]": {"tested_on": "PSN1 cells", "assay": "Protein expression by flow cytometry after PARP inhibitors or DNA-damaging reagents, PSN1 cells", "details": "3 h", "procedure": "(§1) Relative expression of PARP1, 2 and 3, ALDH2 and IMPDH2 was determined by flow cytometry. Cells (1 × 10^6 cells/well) were seeded in 96-well plates in growth medium, washed with FACS buffer (PBS, 2% FBS, 1 mM EDTA, 0.1% NaN3) and centrifuged at 500×g for 5 min. Immunostaining was performed using the Foxp3/transcription factor staining buffer set (eBioscience^TM, USA). Intracellular staining was conducted in permeabilisation buffer for 30 min at 4 °C in the dark using the following antibodies: AF488-conjugated anti-PARP-1 (1:100; sc-80070), AF594-conjugated anti-PARP-2 (1:100; sc-393310), anti-PARP-3 (1:100; sc-390771) or anti-PARP-tankyrase-1/2 (1:100; sc-365897) from Santa Cruz Biotechnology Inc. (USA), AF488-conjugated anti-IMPDH2 (1:500; ab-200770) from Abcam plc. (UK) and AF488-conjugated anti-ALDH2 (1:100, ABIN6817568) from Antibodies-online GmbH (UK). Fixable viability dye ef780 (1:4000; eBioscience^TM; 65-0865-14) was used for live and dead cells discrimination. Fixation of immunostained cells was performed for 15 min at room temperature. Flow cytometry was conducted on the CytoFLEX benchtop flow cytometer (Beckman Coulter, USA), with appropriate lasers and filters, positive and negative controls. Data were analysed using FlowJo^TM (Tree Star Inc., BD Biosciences, USA).\n(§2) AsPC1 (1 × 10^5 cells/well) and PSN1 cells (7.5 × 10^4 cells/well) were exposed to methyl methanesulfonate (MMS) or temozolomide (TMZ) (100 μM, in a total of 270 μL growth medium) for 3 h at 37 °C. Additionally, [^18F]rucaparib (500 kBq, 3.6 GBq/μmol; [^TotalF]rucaparib final concentration: 301 nM) or [^18F]olaparib (400 kBq, 8.5 GBq/μmol; [^TotalF]olaparib final concentration: 300 nM) was added, and the cells were incubated at 37 °C for 30 min. Cell culture medium was removed, and cells were washed with PBS. For cell retention, fresh medium (300 μL) was added to the cells. Cells were then further incubated at 37°C for 3 h. Cell culture medium was removed, and the amount of ^18F in the cell lysates was measured as above. Protein expression of the cells after DNA-damaging treatments (or PARP inhibitors 10 μM) was performed using flow cytometry as above."}, "AsPC1 cells [2]": {"tested_on": "AsPC1 cells", "assay": "Protein expression by flow cytometry after PARP inhibitors or DNA-damaging reagents, AsPC1 cells", "details": "3 h", "procedure": "as §1, §2"}, "PSN1 cells [3]": {"tested_on": "PSN1 cells", "assay": "Uptake and retention of radiolabelled PARP inhibitors in PSN1 cells treated with DNA-damaging reagents", "details": "100 μM, 3 h, retention at 3 h", "procedure": "as §2"}, "AsPC1 cells [4]": {"tested_on": "AsPC1 cells", "assay": "Uptake and retention of radiolabelled PARP inhibitors in AsPC1 cells treated with DNA-damaging reagents", "details": "100 μM, 3 h, retention at 3 h", "procedure": "as §2"}},
  "data": [
    {"smiles": "Cn1ncnc1[C@H]1c2n[nH]c(=O)c3cc(F)cc(c23)N[C@@H]1c1ccc(F)cc1", "note": "[talazoparib]", "values": [
      {"measurement": "PARP1 expression (MFI) after exposure of PARP inhibitors", "setting": "PSN1 cells [1]; 10 μM, flow cytometry", "value": "upregulated"},
      {"measurement": "PARP1 expression (MFI) after exposure of PARP inhibitors", "setting": "AsPC1 cells [2]; 10 μM, flow cytometry", "value": "upregulated"}
    ]},
    {"smiles": "COS(C)(=O)=O", "note": "[MMS, methyl methanesulfonate]", "values": [
      {"measurement": "γH2AX expression", "setting": "PSN1 cells [1]; 100 μM", "value": "increasing trend"},
      {"measurement": "Upregulation of PARP proteins", "setting": "PSN1 cells [1]; 100 μM, flow cytometry", "value": "< 10", "unit": "%"},
      {"measurement": "Cell association and retention of [TotalF]rucaparib and [TotalF]olaparib after exposure to DNA-damaging reagent", "setting": "PSN1 cells [3]", "value": "increased"},
      {"measurement": "Upregulation of PARP proteins", "setting": "AsPC1 cells [2]; 100 μM, flow cytometry", "value": "< 10", "unit": "%"},
      {"measurement": "γH2AX expression", "setting": "AsPC1 cells [2]; 100 μM, not statistically significant in AsPC1 cells", "value": "increasing trend"},
      {"measurement": "Cell association and retention of [TotalF]rucaparib and [TotalF]olaparib after exposure to DNA-damaging reagent", "setting": "AsPC1 cells [4]", "value": "increased"}
    ]}
  ]
}
